According to patent US20220105150A1, “AMPHIPATHIC ALPHA-HELICAL ANTIMICROBIAL PEPTIDES TREAT INFECTIONS BY GRAM-NEGATIVE PATHOGENS” (priority 2019, published 2022):
Converted amounts (≈) assume the structure as drawn. Read-outs that look alike come from different tables or passages of the source.

Tests used:
[1] = system: A. baumannii strain 649; assay type: cell-based, Acinetobacter baumannii; details: MH medium, no serum
Method: Hemoglobin release was determined spectrophotometrically at 570 nm.
Because only unbound AMP is available to interact with the therapeutic target, the extent of binding between AMPs and serum proteins can have significant effects on efficacy of these drugs. […] This assay estimates the in vivo bioavailability of our AMPs. […] An increase in MIC in the presence of serum is attributed to inhibition of antimicrobial activity due to binding to serum proteins.

[2] = system: Acinetobacter baumannii strains resistant to Polymyxin B and Colistin; details: 24 h
[3] = system: Acinetobacter baumannii isolates resistant to classical antibiotics; assay type: cell-based
Text: Thus, shortening the number of carbon atoms between the side-chain amino group and the α-carbon atom from four (Lys) to one (diaminopropionic acid) had very little effect on antibacterial activity (Table 2). We also determined the antibacterial activity of our five AMPs against 20 additional Acinetobacter baumannii isolates from four continents, 12 different countries and 17 different cities that were resistant to 18 different antibiotics. […] Thus, it is very clear that changing the type of positively-charged residue on the polar face of these AMPs had very little effect on the antibacterial activities.

[4] = system: human red blood cells; test: Hemolytic activity on human red blood cells
Method: For comparison, the inventors also determined the hemolytic activity after 18 hours at 37° C. Hemolysis can be determined with red blood cells (RBC) from various species including human red blood cells (hRBC).
The coupling procedure used 5 equivalents of Fmoc-D-amino acid or Fmoc-L-amino acid and HCTU (O-(1H-6-chlorobenzotriazole-1-yl)-1,1,3,3-tetramethyluronium hexafluorophosphate) and 6-Cl-HOBt (1-hydroxy-6-chloro-benztriazole) at 4.5 equivalents in DMF (Fisher Scientific, Denver, Colo.) and N-diisopropylethylamine (DIPEA) 10 equivalents (Oakwood Products, Inc., Estill, S.C.) in N-methyl-2-pyrrolidinone (NMP) (Fisher Scientific, Denver, Colo.) with the first and second couplings at room temperature for 30 min each. The deprotection procedure (removal of Fmoc protecting group) was carried out by treatment of the resin with 0.1 M HOBt (1-hydroxybenzotriazole) in DMF with 20% piperidine for 30 min. […] The resin was removed by filtration and peptide was precipitated with ice-cooled ethyl ether on ice for 15 min. Ether was decanted, the peptide was washed twice with ether and redissolved in acetonitrile/water (1:1, with 0.2% TFA) and the solution lyophilized to obtain the crude peptide. • Analytical and Preparative Purification by Reversed-Phase Chromatography: Analytical RP-HPLC: Column, Luna C18 (2), 250×4.6 mm I.D., 5 μm particle size, 100 Å pore size from Phenomenex (Torrance, Calif.). Run conditions: linear AB gradient (1% acetonitrile/min, starting from 2% acetonitrile) at a flow-rate of 1 ml/min, where eluent A is 0.2% aq. TFA and eluent B is 0.18% TFA in acetonitrile; temperature, 30° C. Preparative RP-HPLC: Peptides were dissolved in 0.2% aq. TFA containing 2% acetonitrile to a final concentration of 10 mg/ml. Following filtration through a 0.45 μm Millipore filter and subsequently through a 0.22 μm filter, the peptide solutions were loaded onto the column via multiple 20-ml injections into a 20-ml injection loop at a flow-rate of 10 ml/min. Column, Luna C18 (2), 250×30 mm I.D., 5 um particle size, 100 Å pore size from Phenomenex. Run conditions: 2% acetonitrile/min gradient up to an acetonitrile concentration 10% below that required to elute the peptide during analytical RP-HPLC, then shallow gradient elution (0.05% or 0.1% acetonitrile/min depending on the complexity of impurities near the product of interest on the analytical run of the crude peptide) at a flow-rate of 10 ml/min (same eluents as shown above for analytical RP-HPLC); at room temperature. • Temperature Profiling of Peptides on Reversed-phase HPLC to Measure Dimerization and Oligomerization: Purified peptides were analyzed on an Agilent 1200 series liquid chromatograph for temperature profiling using a Zorbax 300 SB-C8 column (150 mm×2.1 mm I.D.; 5 μm particle size, 300 Å pore size) from Agilent Technologies. […] Temperature profiling was carried out on peptide mixtures run at each temperature in 2° C. increments from 5° C. to 41° C. and 10° C. increments from 5° C. to 75° C. Twenty minutes was allowed between runs for temperature equilibration. • Characterization of Helical Structure: The mean residue molar ellipticities of peptides were determined by circular dichroism (CD) spectroscopy, using a Jasco J-815 spectropolarimeter (Jasco Inc. Easton, Md., USA) at 5° C. under KP buffer (50 mM NaH2PO4/Na2HPO4/100 mM KCl, pH 7.0) as well as in the presence of an α-helix inducing solvent, 2,2,2-trifluoroethanol, TFE, (50 mM NaH2PO4/Na2HPO4/100 mM KCl, pH 7.0 buffer/50% TFE). A 10-fold dilution of an approximately 500 μM stock solution of the peptide analogs was loaded into a 0.1 cm quartz cell and its ellipticity scanned from 195 to 250 nm.

[5] = molecular target: the molecule itself; test: RP-HPLC temperature profiling (self-association)
[6] = strains resistant to Polymyxin B and Colistin
[7] = isolates resistant to classical antibiotics

In the case of `CC(=O)N[C@H](CCCCN)C(=O)N[C@H](CC(C)C)C(=O)N[C@H](CCCN)C(=O)N[C@H](CO)C(=O)N[C@H](CC(C)C)C(=O)N[C@H](CC(C)C)C(=O)N[C@H](CCCN)C(=O)N[C@@H](C(=O)N[C@H](CC(C)C)C(=O)N[C@H](CO)C(=O)N[C@H](CCCN)C(=O)N[C@H](C)C(=O)N[C@H](C)C(=O)N[C@H](C)C(=O)N[C@H](C)C(=O)N[C@H](C)C(=O)N[C@H](CC(C)C)C(=O)N[C@H](CCCN)C(=O)N[C@@H](C(=O)N[C@H](CC(C)C)C(=O)N[C@H](CC(C)C)C(=O)N[C@H](CCCN)C(=O)N[C@H](C)C(=O)N[C@H](CC(C)C)C(=O)N[C@H](CO)C(=O)N[C@H](CCCN)C(N)=O)[C@H](C)O)[C@H](C)O` [D85(K13A/K16A)-(Lys^1-6Orn-1), Ac-KL(Orn)SLL(Orn)TLS(Orn)AAAAAL(Orn)TLL(Orn)ALS(Orn)-amide], the “MIC No serum” value [1] is reported as 1.5 µM (≈ 4 µg/mL), the “MIC MB9941” value ([2]; strain MB9941, Mueller-Hinton medium, 37° C.) is reported as 2.9 µM (≈ 7.74 µg/mL) and the “MIC MB9949” value ([2]; strain MB9949, Mueller-Hinton medium, 37° C.) is reported as 2.9 µM (≈ 7.74 µg/mL). For the same molecule, the “MIC MB9951” value ([2]; strain MB9951, Mueller-Hinton medium, 37° C.) was 1.5 µM (≈ 4 µg/mL), the “MIC MB9952” value ([2]; strain MB9952, Mueller-Hinton medium, 37° C.) was 1.5 µM (≈ 4 µg/mL) and the “MIC MB9953” value ([2]; strain MB9953, Mueller-Hinton medium, 37° C.) was 1.5 µM (≈ 4 µg/mL). For the same molecule, the “MIC MB9955” value ([2]; strain MB9955, Mueller-Hinton medium, 37° C.) was 1.5 µM (≈ 4 µg/mL), the “MIC MB9963” value ([2]; strain MB9963, Mueller-Hinton medium, 37° C.) was 2.9 µM (≈ 7.74 µg/mL) and the “MIC 101887” value ([3]; strain 101887 (lower line)) was 3.0 µM (≈ 8 µg/mL). For the same molecule, the “MIC 961997” value ([3]; strain 961997 (lower line)) was 1.5 µM (≈ 4 µg/mL), the “MIC 963618” value ([3]; strain 963618 (lower line)) was 1.5 µM (≈ 4 µg/mL) and the “MIC 964304” value ([3]; strain 964304 (lower line)) was 1.5 µM (≈ 4 µg/mL). For the same molecule, the “MIC 977751” value ([3]; strain 977751 (lower line)) was 6.0 µM (≈ 16 µg/mL), the “MIC 981653” value ([3]; strain 981653 (lower line)) was 1.5 µM (≈ 4 µg/mL) and the “MIC 1002956” value ([3]; strain 1002956 (lower line)) was 1.5 µM (≈ 4 µg/mL). For the same molecule, the “MIC 1007660” value ([3]; strain 1007660 (lower line)) was 1.5 µM (≈ 4 µg/mL), the “MIC 1010282” value ([3]; strain 1010282 (lower line)) was 1.5 µM (≈ 4 µg/mL) and the “MIC 1035166” value ([3]; strain 1035166 (lower line)) was 1.5 µM (≈ 4 µg/mL).

For `CC(=O)N[C@H](CCCCN)C(=O)N[C@H](CC(C)C)C(=O)N[C@@H](CN)C(=O)N[C@H](CO)C(=O)N[C@H](CC(C)C)C(=O)N[C@H](CC(C)C)C(=O)N[C@@H](CN)C(=O)N[C@@H](C(=O)N[C@H](CC(C)C)C(=O)N[C@H](CO)C(=O)N[C@@H](CN)C(=O)N[C@H](C)C(=O)N[C@H](CCCCN)C(=O)N[C@H](C)C(=O)N[C@H](C)C(=O)N[C@H](CCCCN)C(=O)N[C@H](CC(C)C)C(=O)N[C@@H](CN)C(=O)N[C@@H](C(=O)N[C@H](CC(C)C)C(=O)N[C@H](CC(C)C)C(=O)N[C@@H](CN)C(=O)N[C@H](C)C(=O)N[C@H](CC(C)C)C(=O)N[C@H](CO)C(=O)N[C@@H](CN)C(N)=O)[C@H](C)O)[C@H](C)O` [D105(Lys^1-6Dap-1), Ac-KL(L-Dap)SLL(L-Dap)TLS(L-Dap)AKAAKL(L-Dap)TLL(L-Dap)ALS(L-Dap)-amide], the “MIC MB9941” value [2, 6] was 0.8 µM (≈ 2.09 µg/mL), the “MIC MB9949” value [2, 6] was 0.8 µM (≈ 2.09 µg/mL) and the “MIC MB9951” value [2, 6] was 3.0 µM (≈ 7.84 µg/mL). The “MIC MB9952” value [2, 6] was 0.8 µM (≈ 2.09 µg/mL), the “MIC MB9953” value [2, 6] was 3.0 µM (≈ 7.84 µg/mL) and the “MIC MB9963” value [2, 6] was 1.5 µM (≈ 3.92 µg/mL). For the same molecule, the “MIC 101887” value [3, 7] was 0.8 µM (≈ 2.09 µg/mL), the “MIC 961997” value [3, 7] was 1.5 µM (≈ 3.92 µg/mL) and the “MIC 963618” value [3, 7] was 0.8 µM (≈ 2.09 µg/mL). For the same molecule, the “MIC 964304” value [3, 7] was 1.5 µM (≈ 3.92 µg/mL), the “MIC 977751” value [3, 7] was 0.8 µM (≈ 2.09 µg/mL) and the “MIC 981653” value [3, 7] was 0.8 µM (≈ 2.09 µg/mL). The “MIC 1002956” value [3, 7] was 0.8 µM (≈ 2.09 µg/mL), the “MIC 1007660” value [3, 7] was 0.8 µM (≈ 2.09 µg/mL) and the “MIC 1010282” value [3, 7] was 0.8 µM (≈ 2.09 µg/mL). The “MIC 1035166” value [3, 7] was 0.8 µM (≈ 2.09 µg/mL), the “HC50 Fold Improvement” value [4] was greater than 287 and the HC50 ([4]; red cells of human, 18 h) was greater than 1148 µM.

Ac-ELEKGGLEGEKGGKELEK-NH2 [random coil control peptide (RC)]: no binding [5].
